Molecules are shown by their SMILES. The source made the active and inactive calls.

The target in test [1] is Estrogen receptor beta (Homo sapiens, UniProt Q92731).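 Also: recombinant ER-beta bound to coactivator SRC1 peptide in presence of estradiol agonist; inhibitors block coactivator peptide binding and lower the FRET signal.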
Test [2] relates to HEK293. The test is described as follows: cells. The conditions noted are these: Homo sapiens.
Test [3] in a line: cytotoxicity toward NIH3T3 fibroblasts, dose response, counter-screen, cell-based, ATP luminescence, mouse fibroblasts (AID 2010).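 Also: cells exposed to compound for about 90 hours before reading.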 The format is functional.
Test [4] is described as follows: Fluorescence-based cell-based high throughput dose response assay for inhibitors of the interaction of nucleotide-binding oligomerization domain containing 2 (NOD2) and the receptor-interacting serine-threonine kinase 2 (RIPK2). The following applies: Homo sapiens. The format is functional.
The target of test [5] is T1, Heat shock factor protein 1 (Mus musculus, UniProt P38532).
T1 sequence (P38532 whole entry): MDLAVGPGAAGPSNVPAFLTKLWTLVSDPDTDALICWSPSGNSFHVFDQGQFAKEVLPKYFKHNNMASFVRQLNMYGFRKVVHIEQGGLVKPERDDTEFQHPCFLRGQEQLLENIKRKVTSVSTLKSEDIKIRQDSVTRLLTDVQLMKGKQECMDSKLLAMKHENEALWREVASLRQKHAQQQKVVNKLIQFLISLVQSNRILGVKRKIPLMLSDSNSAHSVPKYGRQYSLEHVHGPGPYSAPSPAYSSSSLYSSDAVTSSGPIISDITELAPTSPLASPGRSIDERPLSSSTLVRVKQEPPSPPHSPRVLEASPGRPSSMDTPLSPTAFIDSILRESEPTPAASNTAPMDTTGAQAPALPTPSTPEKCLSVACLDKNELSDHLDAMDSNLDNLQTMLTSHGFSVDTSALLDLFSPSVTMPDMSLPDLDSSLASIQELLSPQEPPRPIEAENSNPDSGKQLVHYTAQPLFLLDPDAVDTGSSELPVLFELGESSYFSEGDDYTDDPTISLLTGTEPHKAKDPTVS
The test is described as follows: inhibition of MG132-induced HSE-luciferase signal, confirmation, cell-based, NIH3T3, luminescence, dose retest (AID 2382).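 Also: NIH3T3 fibroblasts with HSF1-driven luciferase reporter stressed by proteasome inhibitor MG132; luminescence from HSF1-driven luciferase expression after 8 hours of MG132 stress.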 The class given is functional.

A short description of test [6]: inhibitors of intracellular T. cruzi replication, confirmation, NIH3T3 host cells, beta-gal luminescence (AID 2044).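 Also: intracellular parasites grown in NIH/3T3 mouse fibroblasts as host cells; luminescent beta-galactosidase reporter signal from transgenic T. cruzi replicating inside host cells; inhibitors lower the luminescence signal.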 The class given is functional, cell-based.
For test [7], the system named is HEK293. The test is described as follows: cells. The conditions noted are these: Homo sapiens. This is another data set of the same source.
Test [8] deals with ATP-dependent molecular chaperone HSP82 (Candida albicans (strain WO-1) (Yeast), UniProt C4YTQ8). The test is described as follows: loss of DOC-induced GRE-beta-galactosidase reporter signal, dose response, Hsp90 inhibitor project, S. cerevisiae, luminescence (AID 2400).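 Also: beta-galactosidase luminescence from glucocorticoid response element reporter as proxy for Hsp90 function; inhibitor potency where signal loss means Hsp90 inhibition.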 The format is functional, cell-based.
ATP-dependent molecular chaperone HSP82, sequence (C4YTQ8 whole entry): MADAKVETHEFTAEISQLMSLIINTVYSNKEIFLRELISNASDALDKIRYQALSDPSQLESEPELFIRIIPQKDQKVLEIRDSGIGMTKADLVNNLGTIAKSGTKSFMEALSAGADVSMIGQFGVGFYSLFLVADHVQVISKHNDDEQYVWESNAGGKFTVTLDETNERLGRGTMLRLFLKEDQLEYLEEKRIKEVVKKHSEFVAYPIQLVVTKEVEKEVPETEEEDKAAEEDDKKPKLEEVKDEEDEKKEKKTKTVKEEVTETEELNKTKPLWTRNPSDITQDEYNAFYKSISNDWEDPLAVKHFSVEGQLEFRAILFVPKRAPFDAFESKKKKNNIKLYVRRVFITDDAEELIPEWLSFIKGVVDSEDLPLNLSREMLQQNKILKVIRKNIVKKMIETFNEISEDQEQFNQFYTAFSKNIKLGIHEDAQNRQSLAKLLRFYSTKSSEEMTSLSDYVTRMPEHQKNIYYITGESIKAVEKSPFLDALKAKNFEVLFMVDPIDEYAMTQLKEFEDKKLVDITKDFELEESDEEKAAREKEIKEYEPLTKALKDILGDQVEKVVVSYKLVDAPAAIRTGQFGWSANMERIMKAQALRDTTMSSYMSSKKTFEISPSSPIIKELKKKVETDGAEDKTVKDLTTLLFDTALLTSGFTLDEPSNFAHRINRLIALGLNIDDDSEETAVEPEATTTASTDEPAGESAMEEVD
The nature of test [9]: NIH-3T3 fibroblast cytotoxicity, dose response, cytotoxicity control, cell-based, fluorescence, Alamar Blue, secondary assay (AID 2327).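 Also: NIH-3T3 mouse fibroblasts cultured with fluconazole at 8 µg/mL.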 The class given is functional. For orientation: The colour change of resazurin is a common sign of viable cells or microbes.
For test [10], the target named is T2, Serine/threonine-protein phosphatase (Candida dubliniensis (strain CD36 / CBS 7987 / NCPF 3949 / NRRLY-17841) (Yeast), UniProt B9W6M3).
T2 sequence (B9W6M3 whole entry): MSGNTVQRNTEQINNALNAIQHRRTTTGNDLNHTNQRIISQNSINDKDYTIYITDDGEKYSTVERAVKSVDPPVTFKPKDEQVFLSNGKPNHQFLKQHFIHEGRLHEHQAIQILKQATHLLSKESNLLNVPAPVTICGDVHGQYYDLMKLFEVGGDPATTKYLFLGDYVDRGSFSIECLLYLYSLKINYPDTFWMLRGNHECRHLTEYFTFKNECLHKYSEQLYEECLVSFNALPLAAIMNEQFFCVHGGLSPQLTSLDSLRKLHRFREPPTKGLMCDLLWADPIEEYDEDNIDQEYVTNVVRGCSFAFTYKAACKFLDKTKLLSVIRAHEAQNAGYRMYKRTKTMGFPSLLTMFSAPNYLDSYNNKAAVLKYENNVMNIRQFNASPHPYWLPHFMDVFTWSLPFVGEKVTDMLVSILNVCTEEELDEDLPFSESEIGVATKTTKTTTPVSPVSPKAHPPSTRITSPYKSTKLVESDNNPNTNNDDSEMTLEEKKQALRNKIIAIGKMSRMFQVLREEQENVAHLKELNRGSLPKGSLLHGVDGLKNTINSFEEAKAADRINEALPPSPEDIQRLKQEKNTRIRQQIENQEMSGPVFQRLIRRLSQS
The test is described as follows: calcineurin pathway inhibitors in yeast reporter, dose response, S. cerevisiae, CDRE-lacZ, luminescence, secondary (AID 2388).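 Also: yeast reporter cells carrying a calcineurin-responsive lacZ construct stimulated with calcium chloride; luminescent beta-galactosidase reporter signal in whole cells rather than isolated phosphatase activity; potency for inhibition where a drop in reporter signal means calcineurin blockade.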 The class given is functional, cell-based.

Test [11] addresses Protein Wnt-3a (Mus musculus, UniProt P27467). The test is described as follows: Wnt3a-driven reporter signaling inhibition, dose response, selectivity assay for Gli-SUFU antagonist project, Wnt-LIGHT cells, luminescence (AID 651570).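 Also: Wnt-LIGHT reporter cells stimulated with conditioned medium from Wnt3a-producing cells.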 The format is functional. The following applies: read-out: IC50_Mean.
Test [12] in a line: C. albicans growth with fluconazole, confirmation, fluorescence, retest (AID 2467). The format is functional, cell-based.
A short description of test [13]: insulin promoter down-regulators in MIN6 cells, imaging, high-content screening, mouse beta cells (AID 1628). The format is functional.
The nature of test [14]: cytotoxicity in MIN6 insulinoma cells, dose response, cytotoxicity control, cell-based, mouse insulinoma (AID 2122).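 Also: confirmatory high-throughput counterscreen run to flag cytotoxic compounds; mouse MIN-6 beta cells carrying an insulin promoter eGFP reporter.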 The format is functional.
The target in test [15] is Dual specificity tyrosine-phosphorylation-regulated kinase 1A (Rattus norvegicus, UniProt Q63470). The format is biochemical, Homo sapiens.
Test [16] concerns the target T3, Rac GTPase-activating protein 1 (Homo sapiens, UniProt Q9H0H5).
T3 sequence (Q9H0H5 whole entry): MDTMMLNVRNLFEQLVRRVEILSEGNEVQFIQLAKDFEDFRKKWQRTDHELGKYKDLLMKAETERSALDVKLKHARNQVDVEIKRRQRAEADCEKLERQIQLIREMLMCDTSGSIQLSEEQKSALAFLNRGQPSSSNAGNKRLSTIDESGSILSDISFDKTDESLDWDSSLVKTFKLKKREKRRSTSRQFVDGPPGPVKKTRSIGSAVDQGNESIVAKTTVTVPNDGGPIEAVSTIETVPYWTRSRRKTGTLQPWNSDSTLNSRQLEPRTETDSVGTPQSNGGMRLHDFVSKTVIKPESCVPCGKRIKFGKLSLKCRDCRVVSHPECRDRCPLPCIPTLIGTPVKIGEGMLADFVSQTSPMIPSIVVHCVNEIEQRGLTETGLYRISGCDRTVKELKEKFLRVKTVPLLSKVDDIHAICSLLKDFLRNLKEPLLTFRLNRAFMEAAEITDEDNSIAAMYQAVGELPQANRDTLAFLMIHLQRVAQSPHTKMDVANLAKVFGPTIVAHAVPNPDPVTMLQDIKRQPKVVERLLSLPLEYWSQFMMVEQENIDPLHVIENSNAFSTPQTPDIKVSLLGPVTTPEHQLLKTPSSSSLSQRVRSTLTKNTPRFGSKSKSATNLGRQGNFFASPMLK
The test is described as follows: MgcRacGAP GTPase-activating activity inhibitors, confirmation, biochemical, ADP Hunter fluorescence, primary and confirmatory (AID 624330). The format is functional.

In test [17] the test system is A-375. The test is described as follows: MITF: Counter assay: A375 proliferation Measured in Cell-Based System Using Plate Reader - 2084-03_Inhibitor_Dose_DryPowder_Activity. [Related pubchem assays (depositor defined):AID488944]. The class given is functional. The conditions noted are these: Homo sapiens.
The target in test [18] is T4, Microphthalmia-associated transcription factor (Homo sapiens, UniProt O75030).
T4 sequence (O75030 whole entry): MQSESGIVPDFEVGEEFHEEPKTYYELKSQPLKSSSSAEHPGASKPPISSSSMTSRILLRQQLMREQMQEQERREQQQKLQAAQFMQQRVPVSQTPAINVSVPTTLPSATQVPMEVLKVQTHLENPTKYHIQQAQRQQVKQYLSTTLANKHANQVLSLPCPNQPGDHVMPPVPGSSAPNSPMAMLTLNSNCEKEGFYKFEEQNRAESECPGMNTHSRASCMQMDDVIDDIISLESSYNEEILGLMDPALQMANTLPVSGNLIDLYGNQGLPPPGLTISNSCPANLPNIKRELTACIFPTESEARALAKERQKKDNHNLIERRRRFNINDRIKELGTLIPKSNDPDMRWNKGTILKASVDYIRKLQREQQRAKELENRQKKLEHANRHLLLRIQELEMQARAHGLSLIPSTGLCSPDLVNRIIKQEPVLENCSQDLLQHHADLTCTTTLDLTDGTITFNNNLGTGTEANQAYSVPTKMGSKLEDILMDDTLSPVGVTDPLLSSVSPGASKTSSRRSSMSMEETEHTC
The test is described as follows: TRPM1 promoter luciferase signal decrease, dose response, MITF inhibitor project, cell-based, SK-MEL-5, cherry-picked, set 3 (AID 493073).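 Also: SK-MEL-5 melanoma cells with luciferase driven by the MITF target TRPM1 promoter.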 The class given is functional.

Test [19] can be described thus: control 3'UTR Renilla luciferase suppression, dose response, counter-screen for Shn3 inhibitor project, cell-based, Clone20-Shn3RL, cherry-picked (AID 624133). The format is functional. (In general: The purpose of a counterscreen is to sort out artefacts and off-target activity.)
The subject of test [20] is INS1. The test is described as follows: beta cell apoptosis inhibitors, cytokine rescue, dose response, luminescence, retest (AID 449756).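 Also: cell death triggered by IL-1 beta plus TNF-alpha plus IFN-gamma mixture; protective hits raise ATP signal compared with cytokine alone wells.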 The class given is functional, cell-based. The conditions noted are these: Rattus norvegicus.
A short description of test [21]: Luminescence Cell-Based Dose Retest to Confirm Inhibitors of Cancer Stem Cells. [Related pubchem assays (depositor defined):AID2717, AID2721]. The class given is functional. The following applies: Homo sapiens.
The nature of test [22]: HepG2 cell cytotoxicity, dose response, cytotoxicity control for Shn3 inhibitor project, CellTiter-Glo, cherry-picked (AID 624134). The format is functional, cell-based. (In ATP-based viability assays light output follows the ATP content of the culture.)
Test [23] in a line: Shn3 3'UTR reporter inhibitors, dose response, cell-based, Clone20 osteoblasts, firefly luciferase, cherry-picked (AID 624132).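 Also: firefly luciferase luminescence from reporter carrying the Shn3 3'UTR in osteoblasts.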 The format is functional.
A short description of test [24]: inhibitors of firefly luciferase expression or activity, dose response, H4 neuroglioma cells, luminescence (AID 1990). The class given is functional, cell-based.
Test [25] is described as follows: inhibitors of SNCA 5'UTR-driven reporter translation, confirmation, H4 neuroglioma cells, luminescence (AID 1988). The class given is functional, cell-based.
The nature of test [26]: Luminescence Cell-Based Dose Response HTS to Identify Inhibitors of 5'UTR Stem-Loop Driven Prion Protein mRNA Translation in H4 Neuroglioblastoma Cells. [Related pubchem assays: 1827 (Project Summary), 1813 (Primary HTS)]. The format is functional.
For test [27], the target named is Large T antigen (Simian virus 40, UniProt P03070). The class given is functional, Betapolyomavirus macacae.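 Also: Confirmatory-stage PubChem screen for compounds that inhibit SV40 T antigen.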
Large T antigen, sequence (P03070 whole entry): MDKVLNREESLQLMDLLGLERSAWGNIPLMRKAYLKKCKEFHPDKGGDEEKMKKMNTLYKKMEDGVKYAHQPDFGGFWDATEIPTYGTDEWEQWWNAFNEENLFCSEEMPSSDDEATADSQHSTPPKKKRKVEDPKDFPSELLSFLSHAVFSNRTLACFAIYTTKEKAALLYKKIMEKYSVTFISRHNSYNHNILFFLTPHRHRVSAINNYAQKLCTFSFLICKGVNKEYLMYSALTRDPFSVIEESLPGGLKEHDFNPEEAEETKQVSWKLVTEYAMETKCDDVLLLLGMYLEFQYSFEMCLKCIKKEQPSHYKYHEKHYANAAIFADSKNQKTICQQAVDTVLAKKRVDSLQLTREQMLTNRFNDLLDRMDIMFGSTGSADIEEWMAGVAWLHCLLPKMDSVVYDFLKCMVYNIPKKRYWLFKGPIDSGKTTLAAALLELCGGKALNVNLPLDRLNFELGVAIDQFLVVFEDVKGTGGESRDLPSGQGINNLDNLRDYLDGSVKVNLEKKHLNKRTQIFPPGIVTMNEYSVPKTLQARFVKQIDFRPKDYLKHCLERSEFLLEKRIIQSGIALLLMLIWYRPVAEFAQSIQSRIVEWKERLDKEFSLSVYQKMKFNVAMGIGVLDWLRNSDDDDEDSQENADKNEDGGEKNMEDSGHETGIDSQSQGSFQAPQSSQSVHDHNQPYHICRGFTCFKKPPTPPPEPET

Protein Wnt-3a, sequence (P27467 whole entry): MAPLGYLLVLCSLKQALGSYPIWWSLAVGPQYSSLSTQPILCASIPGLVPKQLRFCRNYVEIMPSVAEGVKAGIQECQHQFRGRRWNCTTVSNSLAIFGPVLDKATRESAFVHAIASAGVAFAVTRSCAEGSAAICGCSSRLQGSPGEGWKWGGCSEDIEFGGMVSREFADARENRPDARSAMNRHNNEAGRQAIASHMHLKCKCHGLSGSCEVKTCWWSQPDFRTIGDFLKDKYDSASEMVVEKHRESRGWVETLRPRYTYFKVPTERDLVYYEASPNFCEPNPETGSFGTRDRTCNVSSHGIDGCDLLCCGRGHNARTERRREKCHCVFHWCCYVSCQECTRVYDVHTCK
Estrogen receptor beta, sequence (Q92731 whole entry): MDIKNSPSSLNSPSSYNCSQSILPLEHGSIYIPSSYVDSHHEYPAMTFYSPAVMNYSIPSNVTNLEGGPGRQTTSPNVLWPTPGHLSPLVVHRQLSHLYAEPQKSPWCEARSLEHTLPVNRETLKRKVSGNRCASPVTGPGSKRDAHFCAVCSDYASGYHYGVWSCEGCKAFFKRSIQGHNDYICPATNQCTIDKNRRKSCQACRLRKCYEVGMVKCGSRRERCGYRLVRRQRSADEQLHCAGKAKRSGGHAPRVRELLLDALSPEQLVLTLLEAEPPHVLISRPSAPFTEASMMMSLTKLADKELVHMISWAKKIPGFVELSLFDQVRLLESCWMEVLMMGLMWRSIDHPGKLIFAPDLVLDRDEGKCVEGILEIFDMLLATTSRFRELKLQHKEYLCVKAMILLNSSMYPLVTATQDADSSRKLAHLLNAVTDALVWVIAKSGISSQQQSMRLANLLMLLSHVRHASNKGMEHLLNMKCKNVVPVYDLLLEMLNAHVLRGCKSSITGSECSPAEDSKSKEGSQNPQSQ

Consider `CCc1ccc(C(=O)Cn2ncc(Cl)c(Cl)c2=O)cc1`, for which the IC50 in [1] is > 50 µM (not active); in [4], 3.38 µM (active). Also, the EC50 (usually the concentration needed to bring the measured effect to its halfway point) was > 59.6 µM (inactive) in test [2]; 4.03 µM (active) in test [3]; 5.77 µM (active) in test [5]; 2.19 µM (active) in test [6]; > 59.6 µM (inactive) in [7].
`CCc1ccccc1N=C(S)N=Nc1c(O)n(C)c2ccc(S(=O)(=O)N3CCOCC3)cc12`: the EC50 was 40.9 µM (active) in [8], > 150 µM (inconclusive) in test [9], > 180 µM (inactive) in [10] and > 38 µM (not active) in test [12]. Besides, the IC50 in test [11] was 13.3 µM (active).
With `CCN(CC)C1=CC(=[N+]2CCCC2)CC(C)(C)C1`, the IC50 in [13] and in test [14] was < 0.25 µM (active) throughout. The results for the EC50 in [3] and in test [6] were > 60 µM (inconclusive) and 0.732 µM (active), respectively.
For the molecule `Nc1cc2c([N+](=O)[O-])cccc2o1`, the AC50 – broadly, the concentration giving half of the maximal activity seen – in test [15] was 16.6 µM (active). For the same molecule, the IC50 in [16] is 128 µM (active).
In the case of `O=S(=O)(c1ccc(Cl)cc1)N1CCN(Cc2ccc(O)c3ncccc23)CC1`, the AC50 in [17] was 40.6 µM (active); in [18] it was 4.37 µM (active); in test [19], 16.4 µM (active); in test [20], 2.42 µM (active); in test [21], 5.13 µM (active); in [22], 43.9 µM (active). Besides, the AC50 in test [23] is 3.01 µM (active). Also, the EC50 in test [3] was > 30 µM (not active); in [9] it was 16.6 µM (active); in [6], 1.37 µM (active); in test [12], 2.53 µM (active).
Turning to `C/C=C/CSc1nc2c(c(=O)[nH]c(=O)n2C)n1Cc1ccc(C)cc1`, the EC50 in test [2] was > 59.6 µM (inactive); in test [24], 21.2 µM (active); in [7], > 59.6 µM (inactive); in [25] it was 21.4 µM (active); in test [26], > 120 µM (not active).
With `O=C(O)/C=C/c1ccc(O)cc1` [COUMARIC ACID], the AC50 in [15] was 10.9 µM (active). Besides, the IC50 in test [27] was 18.9 µM (active).
As for `O=c1cc(-c2ccc(O)c(O)c2)oc2cc(O[C@@H]3O[C@H](CO)[C@@H](O)[C@H](O)[C@H]3O)cc(O)c12` [GALUTEOLIN], the concentration at half-maximal activity (AC50) in test [15] is 12.7 µM (active).
